Columns and labels:
[1] = tested on: strain of Lactococcus lactis which produces lacticin 481; assay: Inhibition spectrum test on the lacticin 481 producer; type: cell-based
Text: When the strain of Lactococcus lactis which produces lacticin 481 is inoculated in the presence of a […] extract, as previously described in the inhibition spectrum test, the growth of the said strain is seen to be inhibited. The strain of Lactococcus lactis which produces lacticin 481 is immune to its own bacteriocin, lacticin 481, but is not immune to the […] produced by either of the two Micrococcus varians strains according to the present invention.

Gram-negative bacteria = assay: Inhibition spectrum, agar well test, summary; type: cell-based; settings: Table V
Text: The inhibition spectrum of the supernatant is thus determined.

[2] = tested on: Lactobacillus helveticus (N 2); assay: Inactivation by enzymes, agar well test; type: physicochemical; settings: two indicator strains

Row | Substance | growth of the lacticin 481 producing strain [1] | inhibitory effect on the growth of Gram-negative bacteria (Gram-negative bacteria) | influence of catalase on bactericidal activity [2]
1 | lacticin 481 | immune |  | 
2 | variacin: bacteriocin from Micrococcus varians strains CNCM I-1586 and CNCM I-1587, amino acid sequence SEQ ID NO:1 (GSGVIPTISHECHMNSFQFVFTCCS) |  | does not exert any inhibitory effect | not found to exert any influence

From US6689750B1, “Bactericide compositions prepared and obtained from microccus varians” (priority 1995, dated 2004)
